This note sets out measurements from patent US20100240683A1, “COMBINATION THERAPY, COMPOSITION AND METHODS FOR THE TREATMENT OF CARDIOVASCULAR DISORDERS” (Syndromex Ltd., priority 2007, published 2010).

This data set deals with obese dyslipidemic, insulin resistant non-diabetic patients. Description: Sensitization to insulin in obese dyslipidemic, insulin resistant non-diabetic patients. Type of data set: in vivo, human. As for the experimental part: Five obese dyslipidemic, insulin resistant non-diabetic patients were subjected to 4 weeks maintenance period on placebo followed by treatment p.o. with increasing daily doses ranging from 30-600 mg M16ββ per dose for a period of 4 weeks.

Setting [1] is: p.o. 30-600 mg per dose daily, 4 weeks.

In the case of `CC(C)(CCCCCCCCCCC(C)(C)CC(=O)O)CC(=O)O` [M16ββ, 3,3,14,14-tetramethylhexadecane-1,16-dioic acid], for the setting “at daily doses below 200 mg”, the hypolipidemic efficacy result was “substantial hypolipidemic efficacy”. Further, under setting [1], the “HOMA (homeostatic model assessment)” value was “decrease”, the LDL-C result is on record as “no change”, the VLDL-C result is reported as “robust decrease” and the glucose uptake entry is “increased”. For the same molecule, under setting [1], the plasma insulin clearance entry is “increase”, the plasma insulin levels result is “decrease”, the sensitization to insulin result is recorded as “increased sensitization to insulin” and the tolerability result is listed as “well tolerated in all dosages”.
